In US20180319865A1, “Identification of Novel Small Molecule Beta2 Integrin Agonists” (Rush University Medical Center, priority 2016, published 2018):
Read-outs that look alike come from different tables or passages of the source.

Columns and labels:
[1] = molecular target: T1, mutant integrin CD11bE320A/CD18 (Homo sapiens, UniProt P11215, E336A); experiment: HTS cell adhesion assay, K562 E320A cells on immobilized fibrinogen; assay type: cell-based; conditions: five point dose-response
T1 construct: expressed in transfected cells; host or cells: K562 (ATCC)
T1 sequence (P11215 17-1152 E336A): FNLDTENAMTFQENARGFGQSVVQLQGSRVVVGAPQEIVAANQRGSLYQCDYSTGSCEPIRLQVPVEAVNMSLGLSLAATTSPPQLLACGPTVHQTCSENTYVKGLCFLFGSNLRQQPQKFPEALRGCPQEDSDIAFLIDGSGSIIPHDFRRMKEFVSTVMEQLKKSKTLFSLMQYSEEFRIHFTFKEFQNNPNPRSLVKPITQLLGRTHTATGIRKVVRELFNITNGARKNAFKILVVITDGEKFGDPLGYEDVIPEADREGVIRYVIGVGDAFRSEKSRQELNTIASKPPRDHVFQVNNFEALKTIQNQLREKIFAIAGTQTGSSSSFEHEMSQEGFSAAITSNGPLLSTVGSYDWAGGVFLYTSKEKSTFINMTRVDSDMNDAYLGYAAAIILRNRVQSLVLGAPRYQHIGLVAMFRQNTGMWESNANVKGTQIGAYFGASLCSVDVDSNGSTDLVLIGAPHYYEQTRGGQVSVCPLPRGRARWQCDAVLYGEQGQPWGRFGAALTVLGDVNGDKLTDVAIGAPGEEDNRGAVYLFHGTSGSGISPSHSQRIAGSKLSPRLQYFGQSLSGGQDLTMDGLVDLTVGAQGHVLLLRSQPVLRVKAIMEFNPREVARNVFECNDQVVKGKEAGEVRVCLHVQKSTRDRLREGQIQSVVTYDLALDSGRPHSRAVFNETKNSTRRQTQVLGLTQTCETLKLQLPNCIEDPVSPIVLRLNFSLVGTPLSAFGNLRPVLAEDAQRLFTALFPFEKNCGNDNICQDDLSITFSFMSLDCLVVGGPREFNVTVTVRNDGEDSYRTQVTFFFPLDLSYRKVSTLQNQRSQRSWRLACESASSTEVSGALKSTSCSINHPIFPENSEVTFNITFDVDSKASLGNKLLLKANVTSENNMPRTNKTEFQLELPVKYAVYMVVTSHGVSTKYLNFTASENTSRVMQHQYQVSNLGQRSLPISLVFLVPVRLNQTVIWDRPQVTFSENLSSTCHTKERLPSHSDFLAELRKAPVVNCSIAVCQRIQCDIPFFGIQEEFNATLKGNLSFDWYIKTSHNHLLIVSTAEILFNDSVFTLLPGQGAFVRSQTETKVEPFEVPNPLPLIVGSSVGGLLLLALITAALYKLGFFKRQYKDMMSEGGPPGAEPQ
T1 sequence (P05107 23-769 partner): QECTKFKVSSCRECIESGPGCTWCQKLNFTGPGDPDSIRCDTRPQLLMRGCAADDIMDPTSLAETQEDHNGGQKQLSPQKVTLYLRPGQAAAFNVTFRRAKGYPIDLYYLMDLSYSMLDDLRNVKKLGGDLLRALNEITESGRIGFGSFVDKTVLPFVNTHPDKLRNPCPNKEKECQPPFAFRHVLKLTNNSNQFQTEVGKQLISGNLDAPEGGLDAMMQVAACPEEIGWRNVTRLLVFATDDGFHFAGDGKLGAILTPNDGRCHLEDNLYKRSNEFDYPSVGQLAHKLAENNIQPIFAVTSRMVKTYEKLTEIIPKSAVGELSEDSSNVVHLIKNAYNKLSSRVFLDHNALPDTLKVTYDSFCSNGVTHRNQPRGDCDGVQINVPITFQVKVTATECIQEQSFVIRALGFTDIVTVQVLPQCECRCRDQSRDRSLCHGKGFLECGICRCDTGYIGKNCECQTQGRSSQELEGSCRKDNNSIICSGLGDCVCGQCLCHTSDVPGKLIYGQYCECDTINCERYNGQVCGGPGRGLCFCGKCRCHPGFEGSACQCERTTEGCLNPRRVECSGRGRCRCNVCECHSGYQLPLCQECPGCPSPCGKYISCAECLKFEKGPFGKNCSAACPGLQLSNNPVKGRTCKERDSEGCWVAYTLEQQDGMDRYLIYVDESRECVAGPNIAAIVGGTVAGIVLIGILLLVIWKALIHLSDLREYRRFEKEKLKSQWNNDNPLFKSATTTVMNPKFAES
Summary of the method: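 K562 cells expressing the indicated CD11b/CD18 integrin were added to wells coated with 15 μg/mL fibrinogen and incubated with compound for 30 min at 37 °C in Ca2+/Mg2+ buffer. Non-adherent cells were removed by plate inversion. Adherent cells were fixed, stained with DAPI and counted by high-content imaging, scaled from 0% (1 mM Ca2+/Mg2+) to 100% (Mn2+ activation).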

[2] = molecular target: T2, integrin CD11c/CD18 (Homo sapiens, UniProt P20702); experiment: HTS cell adhesion assay, K562 CD11c/CD18 cells on immobilized fibrinogen; assay type: cell-based; conditions: for EC50 CD11c/CD18: Table 3
T2 construct: expressed in transfected cells; host or cells: K562 (ATCC)
T2 sequence (P20702 with tags, fused parts or gaps): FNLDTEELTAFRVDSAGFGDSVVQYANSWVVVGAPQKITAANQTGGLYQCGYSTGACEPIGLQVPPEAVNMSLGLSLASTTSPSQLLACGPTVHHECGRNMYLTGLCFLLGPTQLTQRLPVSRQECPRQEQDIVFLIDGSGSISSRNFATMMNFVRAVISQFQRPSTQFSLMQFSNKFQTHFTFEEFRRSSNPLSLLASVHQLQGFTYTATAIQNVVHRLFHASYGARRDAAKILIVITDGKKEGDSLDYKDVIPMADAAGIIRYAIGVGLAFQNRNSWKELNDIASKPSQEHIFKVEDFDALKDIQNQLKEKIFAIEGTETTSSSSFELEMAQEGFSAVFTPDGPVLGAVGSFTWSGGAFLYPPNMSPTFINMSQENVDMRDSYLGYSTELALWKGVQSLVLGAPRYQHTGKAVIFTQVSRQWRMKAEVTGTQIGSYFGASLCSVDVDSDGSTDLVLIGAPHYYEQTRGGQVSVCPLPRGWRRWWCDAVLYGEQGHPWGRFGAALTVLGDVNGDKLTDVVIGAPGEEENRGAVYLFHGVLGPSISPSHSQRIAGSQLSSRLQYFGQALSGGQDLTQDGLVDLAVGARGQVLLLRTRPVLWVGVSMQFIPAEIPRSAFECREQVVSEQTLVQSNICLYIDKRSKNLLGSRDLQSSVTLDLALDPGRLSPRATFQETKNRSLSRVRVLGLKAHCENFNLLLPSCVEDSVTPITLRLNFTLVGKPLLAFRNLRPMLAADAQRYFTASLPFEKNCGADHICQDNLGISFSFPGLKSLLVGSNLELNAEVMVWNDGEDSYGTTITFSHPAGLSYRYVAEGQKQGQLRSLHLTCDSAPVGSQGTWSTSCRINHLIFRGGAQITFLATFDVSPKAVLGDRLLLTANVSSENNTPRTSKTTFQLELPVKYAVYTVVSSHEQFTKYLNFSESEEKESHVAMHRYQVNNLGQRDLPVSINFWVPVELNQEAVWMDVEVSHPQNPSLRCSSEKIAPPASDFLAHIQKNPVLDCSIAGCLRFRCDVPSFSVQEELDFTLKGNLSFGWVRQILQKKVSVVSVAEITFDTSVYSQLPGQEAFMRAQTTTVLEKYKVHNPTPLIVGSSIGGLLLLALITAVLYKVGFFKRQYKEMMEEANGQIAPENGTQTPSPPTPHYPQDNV
T2 sequence (P05107 23-769 partner): as the sequence (P05107 23-769 partner) above
Protocol: K562 cells stably expressing CD11c/CD18 (K562 CD11c/CD18) were generated similarly. Mutant CD11bE320A has been described previously. K562 cells stably transfected with mutant integrin CD11bE320A/CD18 (K562 E320A) were generated according to literature protocols. All cell lines were maintained in Iscove's Modified Dulbecco's Medium (IMDM) supplemented with 10% heat-inactivated fetal bovine serum, 50 IU/mL penicillin and streptomycin and 0.5 mg/mL G418.
Cell adhesion assays with immobilized ligands were performed using the general protocol previously described and as illustrated in FIG. 1 [33]. Assays with all different K562 cell lines (K562, K562 CD11b/CD18, K562 CD11c/CD18 and K562 E320A) were performed in an identical fashion. Briefly, 384-well microplates (Corning 3700) were coated with 15 μg/mL fibrinogen (Fg) ligand in PBS^++ overnight at 4° C. At the same time, anti-CD18 (IB4) mAb was also coated. Subsequently, the coated wells were washed with 1% nonfat milk in TBS at room temperature for 1 hour. Next, the wells were washed 3 times with TBS, and the coated microplates were used in the HTS assays.
K562 CD11b/CD18, K562 CD11bE320A/CD18 and K562 CD11c/CD18 cells were washed with TBS, and cells were transferred to the Fg-coated wells of microplates in the assay buffer (Ca^2+ and Mg^2+ for physiological condition, Mn^2+ as the Positive control). A 1 μL aliquot of the compounds were transferred to each washed well with multichannel pipet from the 384-well plates.
The assay plates were incubated at 37° C. in the presence of small-molecule compounds for 30 min. To dislodge the non-adherent cell, the assay plates were gently inverted and kept in inverted position for 20 min at room temperature.
The cells were fixed with 37% formaldehyde in a small volume and the plates were kept inverted for 1 h. Upon the fixation, the solutions in the well were discarded. Next, the cells were fluorescently labeled with DAPI (0.5 μM final in TBS with 0.1% Triton X-100) and the quantitated with “Opera High Content Screening System” (Perkin Elmer).
Cell-adhesion under positive and negative control conditions was used to define the activity scale; signal corresponding to the number of non-small molecule treated cells adherent in activating buffer condition (in the presence of Mn^2+ ions as agonist, PC) was considered maximum (100% binding) and the signal corresponding to the number of non-small molecule treated cells adherent in basal buffer condition (in the presence of 1 mM each of Ca^2+ and Mg^2+, NC) was considered minimum (0% binding). […]
The compounds were diluted in DMSO by the final concentration 10 μM, 5 μM, 2.5 μM, 1.25 μM and 0.625 μM and stocked as sealed in 384-well plates at −80° C.

[3] = Table 3, adhesion to fibrinogen
[4] = K562 CD11c/CD18 cells, adhesion to fibrinogen, dose-response
[5] = Table 4, adhesion to fibrinogen

Row | Structure (SMILES) | EC50 [1, 3] [µM] | EC50 [2] [µM] | EC50 CD11c/CD18 [2, 4] | EC50 [1, 5] [µM] | EC50 ([2]; Table 4, K562 CD11c/CD18 cells, adhesion to fibrinogen, dose-response, read-out: EC50 CD11c/CD18) [µM]
1 | N#Cc1sc2nc(-c3ccccc3)cc(-c3ccco3)c2c1N [Compound 629074] | 5.16 | 2.36 |  |  | 
2 | CC1CCN(S(=O)(=O)c2ccc(NC(=O)Cn3nnc(-c4ccccc4)n3)cc2)CC1 [Compound 652267] | 6 | 5.01 |  |  | 
3 | COc1ccc(-c2nnn(CC(=O)Nc3sc4c(c3C#N)CCCC4)n2)cc1 [Compound 652695] | 4.86 | 4.61 |  |  | 
4 | COC(=O)c1[nH]c2ccccc2c1NC(=O)CN1CCCc2ccccc21 [Compound 658682] | 1.6 | 0.621 |  |  | 
5 | CCC(=O)Nc1c(C#N)c2nc3ccccc3nc2n1C1CCCCC1 [Compound 658936] | 0.209 |  | 1.669 (Reverse) |  | 
6 | COC(=O)c1[nH]c2ccc(C)cc2c1NC(=O)CN1CCCc2ccccc21 [Compound 658948] | 0.994 | 0.564 |  |  | 
7 | CC(C)c1nc2sc3c(SCC(=O)NCc4ccco4)ncnc3c2c2c1CCC2 [Compound 664182] | 4.24 | 3.78 |  |  | 
8 | CSc1nc(N(CCO)CCO)c2sc3nc(-c4ccco4)c4c(c3c2n1)CCC4 [Compound 665142] | 4.92 | 2.63 |  |  | 
9 | Cc1ccc(-c2nn3c(C)nnc3s2)cc1NC(=O)c1ccc(-c2cccc(Cl)c2)o1 [Compound 666410] |  | 2.45 |  | 6.22 | 
10 | CCc1cc(=O)oc2cc(C)c3c(C)coc3c12 [Compound 707842] | 15 |  | Infinite |  | 
11 | Cc1cc(C)cc(OCC(=O)Nc2ccc(N3CCCC3)cc2)c1 [Compound 960705] | 3.49 | 2.28 |  |  | 
12 | Cc1ccc2sc(-c3ccc(NC(=O)c4cc(-n5cnnc5)ccc4Cl)cc3)nc2c1 [Compound 1017701] | 8.11 | 2.72 |  |  | 
13 | O=C(Oc1ccc2c(=O)c(Oc3ccc4ccccc4c3)coc2c1)c1cncc(Br)c1 [Compound 1045434] | 9.84 |  | Infinite |  | 
14 | COc1ccccc1NC(=O)c1sc2ncn(Cc3ccc(C)cc3)c(=O)c2c1C [Compound 1078286] | 6.92 | 2.5 |  |  | 
15 | Cc1ccc(-c2nc3ncccc3o2)cc1NC(=O)c1sc2ccccc2c1Cl [Compound 1132508] | 4.44 | 5.39 |  |  | 
16 | O=C(Nc1ccc(NC(=O)c2ccc(S(=O)(=O)c3ccccc3)cc2)cc1)c1ccccc1 [Compound 1144109] | 7.06 | 3.06 |  |  | 
17 | COc1ccc2nc(SCC(=O)Nc3ccc4sc(C)nc4c3)c(C#N)cc2c1 [Compound 1164441] | 4 | 2.77 |  |  | 
18 | Cc1ccc(-n2nnnc2SCC(=O)Nc2ccc3c(c2)COC3=O)cc1C [Compound 1227337] | 4.19 | 3.32 |  |  | 
19 | Cc1cc(OCC(=O)Nc2ccc(N3CCN(C(=O)c4ccco4)CC3)cc2)cc(C)c1Cl [Compound 1255242] | 3.41 | 2.57 |  |  | 
20 | O=C(CCN1C(=O)c2ccccc2C1=O)Nc1ccc(-c2nc3ccccc3o2)cc1 [Compound 1262031] | 1.6 | 7.21 |  |  | 
21 | O=C(Nc1ccc2oc(-c3ccccc3F)nc2c1)c1cncc(Br)c1 [Compound 1295289] | 3.62 | 2.67 |  |  | 
22 | COc1cc(/C=C2\SC(N)=NC2=O)ccc1OCC(=O)Nc1ccc(C)cc1 [Compound 1308620] | 3.3 | 6.27 |  |  | 
23 | CC(=O)Nc1ccc(-c2nnc(SCC(=O)n3c4c(c5ccccc53)CCCC4)n2C)cc1 [Compound 1310712] | 2.39 | 1.29 |  |  | 
24 | O=C(Nc1ccc(N2CCN(c3ccc(O)cc3)CC2)cc1)Oc1ccccc1 [Compound 1317528] | 3.62 | 2.14 |  |  | 
25 | CC(=O)c1ccc(NC(=O)c2ccc3nc(-c4ccco4)c(-c4ccco4)nc3c2)cc1 [Compound 1331726] | 2.46 | 2.64 |  |  | 
26 | Cc1ccc2nsnc2c1NC(=O)c1ccc(-c2cc(Cl)ccc2Cl)o1 [Compound 1334850] | 2.69 | 1.38 |  |  | 

Row | Structure (SMILES) | EC50 [1, 3] [µM] | EC50 [2] [µM] | EC50 CD11c/CD18 [2, 4] | EC50 [1, 5] [µM] | EC50 ([2]; Table 4, K562 CD11c/CD18 cells, adhesion to fibrinogen, dose-response, read-out: EC50 CD11c/CD18) [µM]
27 | Cc1c(N2C(=O)c3ccc4c5c(ccc(c35)C2=O)CC4)c(=O)n(-c2ccccc2)n1C [Compound 1356461] | 4.02 | 2.27 |  |  | 
28 | CCOC(=O)c1c(-n2c(C)cc(C=C3C(=O)NC(=S)NC3=O)c2C)sc2c1CCCC2 [Compound 1494229] | 6.53 |  |  | 6.53 | 6.72
29 | Cc1ccc(-c2ccc(/C=C(\C#N)C(=O)Nc3cc(C)nn3-c3ccccc3)o2)cc1 [Compound 1554430] | 4.68 | 1.3 |  |  | 
30 | COc1ccc(/C=C2/SC(=O)N(CC(=O)Nc3cc(C)on3)C2=O)cc1OC [Compound 1554642] | 7.9 | 5.26 |  |  | 
31 | N=C1/C(=C\c2ccc(-c3cc(Cl)cc(Cl)c3)o2)C(=O)N=C2SC=C(c3ccccc3)N12 [Compound 1599902] | 5.71 | 2.23 |  |  | 
32 | Cc1ccc(/C=c2\sc3nc(-c4ccccc4Br)nn3c2=O)o1 [Compound 1891182] | 6.86 | 5.27 |  |  | 
33 | Cc1ccc(-n2c(N)c(C(=O)Nc3c(C)n(C)n(-c4ccccc4)c3=O)c3nc4ccccc4nc32)cc1 [Compound 1949560] | 5.46 | 5.53 |  |  | 
34 | CS(=O)(=O)c1ccc2c(c1)SC1=NC(=O)/C(=C/c3ccco3)C(=N)N12 [Compound 1951731] | 3.65 | 4.21 |  |  | 
35 | O=C(Nc1nnc(-c2ccccc2SCc2ccccc2)s1)Nc1ccccc1F [Compound 1964957] | 6.47 | 10.6 |  |  | 
36 | Cc1cc(C)cc(-n2c(N)c(C(=O)Nc3c(C)n(C)n(-c4ccccc4)c3=O)c3nc4ccccc4nc32)c1 [Compound 1967927] | 2.67 | 2.49 |  |  | 
37 | N=C1/C(=C\c2ccc(-c3cccc(Cl)c3)o2)C(=O)N=C2SC=C(c3ccccc3)N12 [Compound 1984877] | 3.07 | 2.16 |  |  | 
38 | Cc1ccsc1/C=C/C1=Cc2c(sc(NC(=O)CSc3nnc(N)[nH]3)c2C#N)C(C)(C)C1 [Compound 2083967] | 3.33 | 2.7 |  |  | 
39 | CCOc1ccc(/C=c2\sc3nc(-c4ccco4)nn3c2=O)cc1OCC [Compound 2144321] | 6.49 | 5.07 |  |  | 
40 | Cc1cc(C)cc(NC(=O)Cn2c(=O)oc3cc(S(=O)(=O)N4CCC(C)CC4)ccc32)c1 [Compound 9551541] | 8.23 |  |  |  | 
41 | O=C(Nc1ccc(Cl)cc1)[C@@H]1[C@@H]2C(=O)N(c3ccc(Cl)cc3Cl)C(=O)[C@@H]2[C@H]2C=CC=NN21 [Compound 9551824] | 22.3 |  |  |  | 
42 | COc1ccc(/C=N/NC(=O)C2c3ccccc3-c3ccccc32)cc1 [Compound 9557044] | 10.5 |  |  |  | 
43 | COc1ccc2cc(/C=N/NC(=O)c3ccc(CN(c4ccc(C)c(C)c4)S(C)(=O)=O)cc3)c(Cl)nc2c1 [Compound 9564362] | 12.2 |  |  |  | 
44 | COc1cccc2cc(/C(C)=N/Nc3nc(-c4cc(C)ccc4C)cs3)c(=O)oc12 [Compound 9594695] | 17.5 |  |  |  | 
45 | O=[N+]([O-])c1ccc(-c2ccc(/C=N/c3c(-c4ccco4)nc4ccccn34)o2)c(Cl)c1 [Compound 9617832] | 11.7 |  |  |  | 
46 | Cc1cc(=O)oc2cc(OCC(=O)N/N=C/c3ccccc3[N+](=O)[O-])ccc12 [Compound 9619223] | 35.7 |  |  |  | 
47 | Cc1ccc(NC(=O)COc2ccc(/C=C3/SC(=Nc4ccccc4)N(Cc4cccnc4)C3=O)cc2)cc1 [Compound 11840403] | 13.4 |  |  |  | 
48 | CCOc1ccc(-c2nnc3ccc(SCC(=O)Nc4nc5ccc(C)cc5s4)nn23)cc1 [Compound 12005911] | 12.1 |  |  |  | 
49 | COc1ccc(C(=O)CSc2nnc(NC(=O)C3CC(=O)N(c4ccccc4)C3)s2)cc1 (stereo not shown) [Compound 12006105] | 9.85 |  |  |  | 
50 | O=C(Cn1c2ccccc2c(=O)c2cc([N+](=O)[O-])ccc21)Nc1ccccc1Cl [Compound 15944880] | 10.1 |  |  |  | 
51 | CC(C)c1nnc(NC(=O)c2c(O)c3cccc4c3n(c2=O)CCC4)s1 [Compound 54680928] | 16.1 |  |  |  | 
